Holding throughout (assay type): in vivo, rat
In test [1] the test system is Male Sprague-Dawley rats. As to the kind of experiment: Porsolt swim test (forced swim stress test). From the text: Laboratory Animals: The use of animals for this study was approved by the University Committee on Animal Care at East Tennessee State University. All rats were ordered from Envigo, Inc. (Indianapolis, Ind., USA). Male Sprague-Dawley rats (225-250 g upon arrival) were used as subjects in the Porsolt swim test and were socially housed in groups of 2-3 per cage. Rats used as ‘intruders’ in the social defeat paradigm were individually housed and provided enrichment per the NIH Guidelines for the Care and Use of Animals. Intruder rats were male Sprague-Dawley rats (225-250 g). In addition, a total of 14 female Sprague-Dawley rats weighing 175-199 g upon arrival were obtained for the social defeat paradigm and these rats were socially housed for 6 days in the animal colony prior to fallopian tube ligature, performed as previously described. (Szebeni et al., 2016). Sixteen male Long-Evans hooded rats weighing 250-275 g upon arrival were used as ‘residents’ in the social defeat paradigm. A climate-controlled vivarium was utilized and animals were kept on a 12 h on/12 off light/dark cycle. Porsolt swim test: Different groups of animals were tested in the Porsolt swim test. Rats were treated using the same drug treatment regimen as with the SDS/CUS paradigm, except as noted in the combined drug treatments as noted in the Results. On the eighth day of drug treatment, all animals began behavioral testing in the Porsolt swim test, also known as the forced swim stress test. All animals were tested in black cylinders measuring 36 cm in diameter, and these cylinders were filled with water of 23-25° C. following procedures as reviewed previously (Bogdanova et al., 2013), consistent with the original procedure of Porsolt and coworkers (Porsolt et al., 1978). All animals were given a pre-swim exposure test on the first day of testing, 24 h before the swim test session the following day. On the first day of testing, animals were exposed to the water for 15 min, and on the second day were given a 5 min trial. The two dependent measures used for forced swim stress was the latency to first immobility episode (immobility lasting >5 s) and the total immobility time over the 5 min period, both recorded on the second day of testing. All movements of the animal were recorded by behavioral scanning software (ANY-maze, Stoelting Co., Wood Dale, Ill., USA). Drug administration: All drugs used in the study, 3-aminobenzamide (Product no. A0788; 3-AB), 5-AIQ hydrochloride (Product no. […] F132), were obtained from Sigma-Aldrich, Inc. (St. Louis, Mo., USA). Statistical analysis: A Grubb's test was used to remove statistical outliers from each dataset prior to analyses. Statistical analyses were otherwise performed as indicated using IBM SPSS Statistics (version 23.0) and data were graphed using GraphPad Prism (version 5.0b, GraphPad Software, La Jolla, Calif.). An independent sample t-test was used to analyze data generated when only two groups were analyzed. An analysis of variance (ANOVA) was used to test multiple group comparisons. For post hoc statistical comparisons, a Bonferroni-correction was applied (as noted) to limit Type I error in multiple post-hoc comparisons. For the combined drug treatment experiment, ANOVA was followed by a Dunnett's Multiple Comparison test that focused comparisons of drug treatment groups to the vehicle control group. All data are expressed as mean±standard error of the mean.

Test [2] concerns Male Sprague-Dawley rats. Put plainly: Sucrose preference in rats exposed to repeated social defeat stress plus chronic unpredictable stress. The settings on record: 2 h prior to social defeat, vs stressed rats treated with vehicle. On the procedure: (§1) Social Defeat Stress (SDS): SDS was induced as described previously (Covington and Miczek, 2001; Szebeni et al., 2016). Briefly, Long-Evans hooded rats (‘residents’) were each mated with a female (ligated) rat for a 7-day period. On the eighth day and after removal of the female, an ‘intruder’ rat was placed into the cage for a 5 min period and dominance was established by the resident. Defeat was produced between 0900 and 1000 h daily for 10 consecutive days. Control rats not exposed to defeat were handled each day during this same time period.
Chronic unpredictable stress (CUS): CUS was performed after SDS on the same day, but at random times either during the day or evening as previously described (Bondi et al., 2008; Szebeni et al., 2016). Different stressors were randomly arranged and occurred at random times during the light or dark cycle of each day for 10 consecutive days. […]
Sucrose Preference: Sucrose preference was performed during the final three days of induction of social defeat stress (days 8-10), using a procedure based on that of D'Aquila et al. (1997). […] Amounts of sucrose consumed were calculated as percentages of the total amount of fluid consumed during the 2 h period on each of the 3 days of testing. […] The preference of sucrose over water was used as a measure of animal's sensitivity to reward and expressed as a percent. […]

The test system of test [3] is Male Sprague-Dawley rats. As to the kind of experiment: Social interaction test in rats exposed to repeated social defeat stress plus chronic unpredictable stress. On the procedure:
as §1
Chronic unpredictable stress (CUS): CUS was performed after SDS on the same day, but at random times either during the day or evening as previously described (Bondi et al., 2008; Szebeni et al., 2016). Different stressors were randomly arranged and occurred at random times during the light or dark cycle of each day for 10 consecutive days. All rats were exposed twice to each of 5 different stressors, which included a 30-min restraint, a 1-h shaking/crowding, 10-min cold water (18° C.) swim, a 15-min warm water swim (25° C.) and a 24-h tipped cage. […]
Social interaction test: The social interaction test was performed 24 h after the last social defeat stress on day 11 of behavioral testing. […] The amount of time spent in a defined interaction zone close to the metal divider was measured using ANYmaze video tracking (Stoelting Co., Wood Dale Ill., USA). […]

The mark [4] stands for this setting: third experiment, 4 mg/kg i.p. 3 times over 24 h, alone, Dunnett's test vs vehicle.
[5] abbreviates: third experiment, 2.5 mg/kg i.p. 3 times over 24 h, alone, Dunnett's test vs vehicle.

The structures appear in SMILES notation.

Consider `NC(=O)c1cccc(N)c1` [3-AB, 3-aminobenzamide], for which the time spent immobile entry with Male Sprague-Dawley rats [1] (preliminary experiment, 40 mg/kg i.p. daily for 10 days, 2 h after injection, vs saline-treated controls, t=2.36, p<0.05) is listed as “significantly decreased”. In addition, the latency to immobility entry with Male Sprague-Dawley rats [1] (preliminary experiment, 40 mg/kg i.p. daily for 10 days, 2 h after injection, vs saline-treated controls, t=5.56, p<0.001) was “significant increase”; with Male Sprague-Dawley rats [1] (second experiment, 0.4 mg/kg i.p. once daily for 10 days, vs vehicle control group), “did not significantly differ”; in the test with Male Sprague-Dawley rats [1] (second experiment, 4 mg/kg i.p. once daily for 10 days, vs vehicle control group) it was “did not significantly differ”; with Male Sprague-Dawley rats [1] (second experiment, 40 mg/kg i.p. injections 23.5, 5 and 1 h before testing (3-AB×3), vs vehicle control group), “did not significantly differ”; in the test with Male Sprague-Dawley rats [1] (second experiment, 40 mg/kg i.p. once daily for 10 days, vs vehicle-treated control rats) it was “significantly greater”; in the test on Male Sprague-Dawley rats [1] (setting [4]), “did not significantly affect”. In addition, the immobility time result in the test on Male Sprague-Dawley rats [1] (second experiment, 40 mg/kg i.p. injections 23.5, 5 and 1 h before testing (3-AB×3), vs vehicle group) was “significantly less time immobile”; in the test on Male Sprague-Dawley rats [1] (second experiment, 40 mg/kg i.p. once daily for 10 days, vs vehicle group), “significantly less time immobile”; in the test on Male Sprague-Dawley rats [1] (setting [4]) it was “did not significantly affect”. Further, the sucrose preference result in the test on Male Sprague-Dawley rats [2] (40 mg/kg i.p. daily for 10 days, p=0.024) was “significantly higher”. In addition, in the test on Male Sprague-Dawley rats [3] (40 mg/kg i.p. daily for 10 days, vs vehicle-treated rats exposed to stressors, p=0.014), the “time spent in the interaction zone” value was “significantly greater”.

On to `Nc1cccc2c(=O)[nH]ccc12` [5-AIQ, 5-aminoisoquinolinone], for which the latency to immobility entry with Male Sprague-Dawley rats [1] (second experiment, 0.3 mg/kg i.p. once daily for 10 days, vs vehicle control group) is recorded as “did not significantly differ”. In addition, in the test with Male Sprague-Dawley rats [1] (second experiment, 0.3 mg/kg i.p. once daily for 10 days, vs vehicle group), the immobility time entry is on record as “significantly less time immobile”.

Turning to `CNCCC(Oc1ccc(C(F)(F)F)cc1)c1ccccc1` (centres unmarked) [fluoxetine], the immobility time entry is “significantly less time immobile” in the test with Male Sprague-Dawley rats [1] (second experiment, 10 mg/kg i.p. injections 23.5, 5 and 1 h before testing, vs vehicle group); “did not significantly affect” in the test on Male Sprague-Dawley rats [1] (setting [5]). For the same compound, the latency to immobility entry with Male Sprague-Dawley rats [1] (second experiment, 10 mg/kg i.p. injections 23.5, 5 and 1 h before testing, vs vehicle-treated control rats) was “significantly greater”; with Male Sprague-Dawley rats [1] (setting [5]) it was “did not significantly affect”. In the test on Male Sprague-Dawley rats [2] (10 mg/kg i.p. daily for 10 days, p=0.005), the sucrose preference entry is “significantly higher”. Further, the “time spent in the interaction zone” value in the test with Male Sprague-Dawley rats [3] (10 mg/kg i.p. daily for 10 days, difference vs vehicle-treated rats exposed to stress, appeared greater, p=0.073) is “did not reach statistical significance”.

The record behind these values is patent US20180042919A1, “PARP Inhibitors for the Treatment of Major Depressive Disorder and Related Conditions” (East Tennessee State University Research Foundation, priority 2016, published 2018).
